Consider 21 compounds from patent publication US9938273B2 (Plexxikon Inc., priority 2015, dated 2018).

One assay deals with T1, FLT3-ITD (Homo sapiens, UniProt P36888).
T1 sequence (P36888 1-993): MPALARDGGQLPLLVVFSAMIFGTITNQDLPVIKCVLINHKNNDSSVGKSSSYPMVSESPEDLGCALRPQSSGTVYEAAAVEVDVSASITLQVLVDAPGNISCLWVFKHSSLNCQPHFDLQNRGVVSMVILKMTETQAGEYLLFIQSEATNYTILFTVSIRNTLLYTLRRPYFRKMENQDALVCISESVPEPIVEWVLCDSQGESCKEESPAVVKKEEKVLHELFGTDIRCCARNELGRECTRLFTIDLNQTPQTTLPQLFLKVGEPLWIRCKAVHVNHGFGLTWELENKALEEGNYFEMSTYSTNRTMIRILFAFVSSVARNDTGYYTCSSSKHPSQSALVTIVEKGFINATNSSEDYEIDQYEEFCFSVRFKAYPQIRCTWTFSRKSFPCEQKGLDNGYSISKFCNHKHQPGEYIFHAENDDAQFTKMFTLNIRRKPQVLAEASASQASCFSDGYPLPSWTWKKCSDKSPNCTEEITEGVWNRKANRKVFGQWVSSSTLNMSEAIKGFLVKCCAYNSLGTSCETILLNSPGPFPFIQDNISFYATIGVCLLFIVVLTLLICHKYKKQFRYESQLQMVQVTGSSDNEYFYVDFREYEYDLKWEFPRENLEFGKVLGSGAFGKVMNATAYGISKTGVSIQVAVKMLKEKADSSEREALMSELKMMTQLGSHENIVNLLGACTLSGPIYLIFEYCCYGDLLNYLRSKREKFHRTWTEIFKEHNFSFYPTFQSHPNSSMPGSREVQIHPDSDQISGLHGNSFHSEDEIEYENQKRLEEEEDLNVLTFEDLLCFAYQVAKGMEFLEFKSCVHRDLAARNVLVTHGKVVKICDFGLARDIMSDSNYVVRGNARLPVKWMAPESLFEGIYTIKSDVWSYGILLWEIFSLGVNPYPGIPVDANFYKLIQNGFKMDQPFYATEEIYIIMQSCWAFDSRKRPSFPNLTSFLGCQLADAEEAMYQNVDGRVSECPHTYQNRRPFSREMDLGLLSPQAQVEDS
Kind of assay: AlphaScreen kinase assay with recombinant enzyme, FLT3-ITD. The assay is classed as biochemical. The note with it: 8pt; read-out: FLT3_ITD 8pt: IC50. The gist of the method: (§1)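 AlphaScreen, biotinylated poly(Glu4-Tyr) 30 nM final; PY20 anti-pTyr acceptor and streptavidin donor beads 10 μg/mL; IC50 final conc. 10 μM (FLT3-D835Y, FLT3-ITD) / 100 μM (c-KIT); detection incubations 20 + 60 min RT; 580 nm emission.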

For the next assay, the target named is T2, FLT3-D835Y (Homo sapiens, UniProt P36888, D835Y).
T2 construct: purchased Invitrogen PV3967
T2 sequence (P36888 27-993 D835Y): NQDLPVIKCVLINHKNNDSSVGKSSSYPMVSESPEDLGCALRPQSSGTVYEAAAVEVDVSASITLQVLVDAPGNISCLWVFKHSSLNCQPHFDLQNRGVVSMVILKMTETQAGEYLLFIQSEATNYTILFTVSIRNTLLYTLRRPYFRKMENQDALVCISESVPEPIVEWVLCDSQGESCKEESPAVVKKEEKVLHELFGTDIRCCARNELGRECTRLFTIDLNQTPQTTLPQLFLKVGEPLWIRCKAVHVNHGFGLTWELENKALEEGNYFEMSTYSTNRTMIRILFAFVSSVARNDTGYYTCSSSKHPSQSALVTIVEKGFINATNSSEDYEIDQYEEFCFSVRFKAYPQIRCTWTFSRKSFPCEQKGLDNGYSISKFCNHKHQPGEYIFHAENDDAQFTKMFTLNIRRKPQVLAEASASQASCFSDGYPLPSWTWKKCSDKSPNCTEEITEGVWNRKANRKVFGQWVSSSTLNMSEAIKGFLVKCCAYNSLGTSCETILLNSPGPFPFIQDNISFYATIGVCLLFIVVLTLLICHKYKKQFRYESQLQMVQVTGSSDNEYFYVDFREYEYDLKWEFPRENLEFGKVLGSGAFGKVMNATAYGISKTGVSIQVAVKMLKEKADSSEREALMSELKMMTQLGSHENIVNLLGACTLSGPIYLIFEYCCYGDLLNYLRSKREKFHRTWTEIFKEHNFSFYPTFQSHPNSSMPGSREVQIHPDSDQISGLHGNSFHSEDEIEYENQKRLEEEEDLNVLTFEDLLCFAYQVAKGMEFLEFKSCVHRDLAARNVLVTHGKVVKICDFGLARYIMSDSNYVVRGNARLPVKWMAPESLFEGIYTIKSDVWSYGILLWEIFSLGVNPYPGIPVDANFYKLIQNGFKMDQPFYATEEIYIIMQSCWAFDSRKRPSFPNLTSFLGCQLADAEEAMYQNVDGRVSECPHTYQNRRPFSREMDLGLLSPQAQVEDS
The assay can be described thus: AlphaScreen kinase assay with recombinant enzyme, FLT3-D835Y. The assay is classed as biochemical. The settings on record: 8pt, GMean. The gist of the method:
as §1

In the case of `CC(=O)NC1CCN(C(=O)c2cccc(-c3cnc4[nH]c(-c5ccc(F)cc5)cc4c3)c2)CC1` [Compound P-0001, N-[1-[3-[2-(4-fluorophenyl)-1H-pyrrolo[2,3-b]pyridin-5-yl]benzoyl]-4-piperidyl]acetamide], the IC50 on FLT3-ITD and on FLT3-D835Y was 10 to 50 µM throughout.

Take `CON(C)C(=O)c1cccc(-c2cnc3[nH]c(-c4ccccc4)cc3c2)c1` [Compound P-0002, N-methoxy-N-methyl-3-(2-phenyl-1H-pyrrolo[2,3-b]pyridin-5-yl)benzamide]: the IC50 on FLT3-ITD and at FLT3-D835Y was 0.0001 to 10 µM each time.

Consider `NC1CN(C(=O)c2n[nH]c3ccc(-c4cnc5[nH]c(-c6ccccc6)cc5c4)cc23)C1` [Compound P-0029, (3-aminoazetidin-1-yl)-[5-(2-phenyl-1H-pyrrolo[2,3-b]pyridin-5-yl)-1H-indazol-3-yl]methanone], for which the IC50 at FLT3-ITD and at FLT3-D835Y was 0.0001 to 10 µM throughout.

As to `CNC(=O)C1CCN(C(=O)c2cccc(-c3cnc4[nH]c(-c5ccccc5)cc4c3)n2)CC1` [Compound P-0030, N-methyl-1-[6-(2-phenyl-1H-pyrrolo[2,3-b]pyridin-5-yl)pyridine-2-carbonyl]piperidine-4-carboxamide], the IC50 at FLT3-ITD and at FLT3-D835Y was 0.0001 to 10 µM each time.

Turning to `CCNC(=O)NC1CCN(C(=O)c2cccc(-c3cnc4[nH]c(-c5ccccc5)cc4c3)n2)CC1` [Compound P-0031, 1-ethyl-3-[1-[6-(2-phenyl-1H-pyrrolo[2,3-b]pyridin-5-yl)pyridine-2-carbonyl]-4-piperidyl]urea], the IC50 on FLT3-ITD and on FLT3-D835Y was 0.0001 to 10 µM throughout.

On to `CS(=O)(=O)NC1CCN(C(=O)c2cccc(-c3cnc4[nH]c(-c5ccccc5)cc4c3)n2)CC1` [Compound P-0032, N-[1-[6-(2-phenyl-1H-pyrrolo[2,3-b]pyridin-5-yl)pyridine-2-carbonyl]-4-piperidyl]methanesulfonamide], for which the IC50 at FLT3-ITD and at FLT3-D835Y was 0.0001 to 10 µM in each case.

Take `Cc1ccc(-c2cnc3[nH]c(-c4ccccc4)cc3c2)nc1C(=O)N1CCC(N)CC1` [Compound P-0033, (4-amino-1-piperidyl)-[3-methyl-6-(2-phenyl-1H-pyrrolo[2,3-b]pyridin-5-yl)-2-pyridyl]methanone]: the IC50 on FLT3-ITD and at FLT3-D835Y was 0.0001 to 10 µM each time.

In the case of `NC1CCN(c2cccc3ccc(-c4cnc5[nH]c(-c6ccccc6)cc5c4)nc23)CC1` [Compound P-0034, 1-[2-(2-phenyl-1H-pyrrolo[2,3-b]pyridin-5-yl)-8-quinolyl]piperidin-4-amine], the IC50 at FLT3-ITD and at FLT3-D835Y was 0.0001 to 10 µM in each case.

With `Cc1ccc(-c2cnc3[nH]c(-c4ccccc4)cc3c2)cc1C(=O)N1CCC(N)CC1` [Compound P-0035, (4-amino-1-piperidyl)-[2-methyl-5-(2-phenyl-1H-pyrrolo[2,3-b]pyridin-5-yl)phenyl]methanone], the IC50 at FLT3-ITD and at FLT3-D835Y was 0.0001 to 10 µM in each case.

`N[C@H]1CCN(C(=O)c2cccc(-c3cnc4[nH]c(-c5ccccc5)cc4c3)c2)C1` [Compound P-0036, [(3S)-3-aminopyrrolidin-1-yl]-[3-(2-phenyl-1H-pyrrolo[2,3-b]pyridin-5-yl)phenyl]methanone]: the IC50 at FLT3-ITD and at FLT3-D835Y was 0.0001 to 10 µM in each case.

Regarding `NC1CCN(C(=O)c2cc(-c3cnc4[nH]c(-c5ccccc5)cc4c3)ccn2)CC1` [Compound P-0038, (4-amino-1-piperidyl)-[4-(2-phenyl-1H-pyrrolo[2,3-b]pyridin-5-yl)-2-pyridyl]methanone], the IC50 at FLT3-ITD and on FLT3-D835Y was 0.0001 to 10 µM each time.

Regarding `O=C(NC1CCNCC1)c1n[nH]c2ccc(-c3cnc4[nH]c(-c5ccccc5)cc4c3)cc12` [Compound P-0039, 5-(2-phenyl-1H-pyrrolo[2,3-b]pyridin-5-yl)-N-(4-piperidyl)-1H-indazole-3-carboxamide], the IC50 on FLT3-ITD and at FLT3-D835Y was 0.0001 to 10 µM in each case.

As for `CNC1CCN(C(=O)c2cccc(-c3cnc4[nH]c(-c5ccccc5)cc4c3)n2)CC1` [Compound P-0041, [4-(methylamino)-1-piperidyl]-[6-(2-phenyl-1H-pyrrolo[2,3-b]pyridin-5-yl)-2-pyridyl]methanone], the IC50 at FLT3-ITD and at FLT3-D835Y was 0.0001 to 10 µM each time.

As to `NC1CCN(C(=O)c2c[nH]c3ccc(-c4cnc5[nH]c(-c6ccccc6)cc5c4)cc23)CC1` [Compound P-0042, (4-amino-1-piperidyl)-[5-(2-phenyl-1H-pyrrolo[2,3-b]pyridin-5-yl)-1H-indol-3-yl]methanone], the 50% inhibitory concentration (IC50) on FLT3-ITD and on FLT3-D835Y was 0.0001 to 10 µM in each case.

In the case of `O=C(c1cccc(-c2cnc3[nH]c(-c4ccccc4)cc3c2)n1)C1CCNCC1` [Compound P-0043, [6-(2-phenyl-1H-pyrrolo[2,3-b]pyridin-5-yl)-2-pyridyl]-(4-piperidyl)methanone], the IC50 at FLT3-ITD and at FLT3-D835Y was 0.0001 to 10 µM in each case.

For `CNC1CCN(C(=O)c2n[nH]c3ccc(-c4cnc5[nH]c(-c6ccccc6)cc5c4)cc23)CC1` [Compound P-0044, [4-(methylamino)-1-piperidyl]-[5-(2-phenyl-1H-pyrrolo[2,3-b]pyridin-5-yl)-1H-indazol-3-yl]methanone], the IC50 on FLT3-ITD and on FLT3-D835Y was 0.0001 to 10 µM in each case.

Turning to `O=C(NC1CCNC1)c1cccc(-c2cnc3[nH]c(-c4ccccc4)cc3c2)n1` (stereo not drawn) [Compound P-0045, 6-(2-phenyl-1H-pyrrolo[2,3-b]pyridin-5-yl)-N-pyrrolidin-3-yl-pyridine-2-carboxamide], the IC50 on FLT3-ITD and on FLT3-D835Y was 0.0001 to 10 µM in each case.

On to `N[C@H]1CCN(C(=O)c2cc(-c3cnc4[nH]c(-c5ccccc5)cc4c3)ccn2)C1` [Compound P-0046, [(3S)-3-aminopyrrolidin-1-yl]-[4-(2-phenyl-1H-pyrrolo[2,3-b]pyridin-5-yl)-2-pyridyl]methanone], for which the IC50 at FLT3-ITD and at FLT3-D835Y was 0.0001 to 10 µM in each case.

For `NC1CCC(C(=O)N2Cc3c(cccc3-c3cnc4[nH]c(-c5ccccc5)cc4c3)C2=O)C1` (stereo not drawn) [Compound P-0047, 2-(3-aminocyclopentanecarbonyl)-4-(2-phenyl-1H-pyrrolo[2,3-b]pyridin-5-yl)isoindolin-1-one], the concentration for half-maximal inhibition (IC50) on FLT3-ITD and on FLT3-D835Y was 0.0001 to 10 µM throughout.

Take `N[C@H]1CCN(C(=O)c2csc(-c3cnc4[nH]c(-c5ccccc5)cc4c3)n2)C1` [Compound P-0048, [(3S)-3-aminopyrrolidin-1-yl]-[2-(2-phenyl-1H-pyrrolo[2,3-b]pyridin-5-yl)thiazol-4-yl]methanone]: the IC50 on FLT3-ITD lay within 0.0001 to 10 µM; on FLT3-D835Y, 10 to 50 µM.

Regarding `c1ccc(-c2cc3cc(-c4ccc5[nH]nc(NC6CNC6)c5c4)cnc3[nH]2)cc1` [Compound P-0053, N-(azetidin-3-yl)-5-(2-phenyl-1H-pyrrolo[2,3-b]pyridin-5-yl)-1H-indazol-3-amine], the IC50 at FLT3-ITD and at FLT3-D835Y was 0.0001 to 10 µM throughout.
